Laboratory results as given in EP1099439A2, “Use of apo B secretion/MTP inhibitors” (Pfizer Products Inc., priority 1999, dated 2001).

System: intestinal fat absorption
Assay: Intestinal fat absorption reduction determination (gravimetric fecal fat content) in dogs
Format: in vivo
Details: male beagles, oral gavage, dosing solution 0.5 mg/mL, 1 mL per kg body weight, single daily dose on Days 0 and 5-12; fecal fat determined gravimetrically
From the text: Healthy, young adult (1-2 years of age) male beagles (Marshall Farms, North Rose, New York, NY 14516) weighing 11.45 - 12.45 kg at the start of the treatment period were employed as test subjects. The animals were housed individually in standard caging meeting or exceeding the USDA regulations (U.S. Department of Agriculture, Animal Welfare, Final Rules. 9 C.F.R. Parts 1-3, 1995).
The test compound was provided as a water-soluble powder. The dosing solution, administered by oral gavage, was provided employing a 0.025 M citrate buffer (approx. pH = 3) prepared using anyhdrous citric acid (0.4 g/mL) and anhydrous sodium citrate (0.1 g/mL) as the test vehicle. The dosing solution was prepared at 0.5 mg/mL activity so that 1 mL was delivered per kg body weight. Following a fourteen day acclimation period (designated as Days -14 to -1), during which time the test animals were evaluated for certain criteria including determination of body weight, physical examinations, and initial fecal specimen collection, a sixteen day evaluation study was effected. […]
Fecal specimens were collected daily over approximately 24 hours (±1 hr) prestudy and then beginning on Day -2 and terminating on Day 16. The fecal specimens so collected were weighed (total grams of bulk feces) frozen, stored at -26°C to -20°C and then analyzed for fecal fat content. […]

SMILES | reduced intestinal fat absorption in dogs [%]
CC(=O)NCCN1CCc2cc(NC(=O)c3ccccc3-c3ccc(C(F)(F)F)cc3)ccc2C1 [4'-trifluoromethyl-biphenyl-2-carboxylic acid-[2-(2-acetylaminoethyl)-1,2,3,4-tetrahydroisoquinolin-6-yl amide] | 49
CCCCN1CCc2cc(NC(=O)c3ccccc3-c3ccc(C(F)(F)F)cc3)ccc2C1 [4'-trifluoromethyl-biphenyl-2-carboxylic acid-(2-butyl-1,2,3,4-tetrahydroisoquinolin-6-yl)-amide] | 26
